In this assay the test system is Streptozotocin-injected male Wistar rats. Put plainly: Glycemia over 24 days in streptozotocin (60 mg/kg) rats given betaine in drinking water (Example 4). The assay is classed as in vivo, rat. To be noted: 200 mg/kg/day in drinking water, STZ 60 mg/kg rats, FIG. 4. As for the experimental part: Male Wistar rats (+250 g) after 1 week stabulation are injected Streptozotocin 60 mg/kg intraperitoneally. Animals (n=8/group) were fed with normal chow and water ad libitum during 5 days, then at day 1 (T0) Betaine (200 mg/kg/day) or placebo were dissolved and administrated daily in drinking water during 24 days; full access to normal chow was maintained during the whole experiments. Glycemia was measured morning at days of experiments, in non-fastened rats (as in previous exp.). At T0+7 days the treatments were inverted between the 2 groups.

As to `C[N+](C)(C)CC(=O)O` [glycine betaine], the “effect on the regulation of blood glucose” value is recorded as “per se possesses an effect on the regulation of blood glucose”.
